According to article PMC4411898, “Impact of kinesin Eg5 inhibition by 3,4-dihydropyrimidin-2(1H)-one derivatives on various breast cancer cell features” (BMC Cancer, 2015):

What was measured:
MCF-7 cells [1] = experiment: MTT cell viability assay, MCF-7; type: cell-based, human; settings: for IC50: 72 h treatment, MTT, read-out: IC50 MCF-7; for Effect on cell viability, MCF-7: all concentrations tested 100 μM – 1.00 mM, 72 h
Description: Absorbance readings were measured by a spectrophotometer. Cell viability was normalized to control (vehicle only).

MCF-7 cells [2] = experiment: CD44+/CD24- expression analysis, MCF-7; type: cell-based, human; settings: 24 h; for CD44-/CD24- subpopulation, MCF-7 (mean ± SEM): 4m 1.0 mM, 4bt 0.8 mM, 4p 0.4 mM, 4bc 1.0 mM, 4x 0.8 mM, monastrol 1.0 mM; for CD44+/CD24+ subpopulation, MCF-7 (mean ± SEM) / CD44-/CD24+ subpopulation, MCF-7 (mean ± SEM) / CD44+/CD24- subpopulation, MCF-7 (mean ± SEM): concentrations as E28; for CD44+/CD24- subpopulation, MCF-7 (mean ± SEM): control 0.38 ± 0.18
Description: For proliferation assays, cells were treated with IC50 concentrations of each compound. Adherent and floating cells were harvested at the same tube and pelleted by centrifugation at 300 g for 5 minutes and stained. Data acquisition of these two fractions put together was performed on a FACSCalibur flow cytometer using CellQuest software and analysed using the FloJo Software. Expression level of CD44 and CD24 in treated and control MCF-7 or MDA-MB-231 cells was measured after 24 h of treatment.

Kinesin Eg5 = target: T1, Kinesin Eg5 (Homo sapiens, UniProt P52732); experiment: Kinesin inhibition assay (Kinesin ELIPA); type: biochemical; settings: compound at its IC50, 30 min, 360 nm
T1 sequence (P52732 1-1056): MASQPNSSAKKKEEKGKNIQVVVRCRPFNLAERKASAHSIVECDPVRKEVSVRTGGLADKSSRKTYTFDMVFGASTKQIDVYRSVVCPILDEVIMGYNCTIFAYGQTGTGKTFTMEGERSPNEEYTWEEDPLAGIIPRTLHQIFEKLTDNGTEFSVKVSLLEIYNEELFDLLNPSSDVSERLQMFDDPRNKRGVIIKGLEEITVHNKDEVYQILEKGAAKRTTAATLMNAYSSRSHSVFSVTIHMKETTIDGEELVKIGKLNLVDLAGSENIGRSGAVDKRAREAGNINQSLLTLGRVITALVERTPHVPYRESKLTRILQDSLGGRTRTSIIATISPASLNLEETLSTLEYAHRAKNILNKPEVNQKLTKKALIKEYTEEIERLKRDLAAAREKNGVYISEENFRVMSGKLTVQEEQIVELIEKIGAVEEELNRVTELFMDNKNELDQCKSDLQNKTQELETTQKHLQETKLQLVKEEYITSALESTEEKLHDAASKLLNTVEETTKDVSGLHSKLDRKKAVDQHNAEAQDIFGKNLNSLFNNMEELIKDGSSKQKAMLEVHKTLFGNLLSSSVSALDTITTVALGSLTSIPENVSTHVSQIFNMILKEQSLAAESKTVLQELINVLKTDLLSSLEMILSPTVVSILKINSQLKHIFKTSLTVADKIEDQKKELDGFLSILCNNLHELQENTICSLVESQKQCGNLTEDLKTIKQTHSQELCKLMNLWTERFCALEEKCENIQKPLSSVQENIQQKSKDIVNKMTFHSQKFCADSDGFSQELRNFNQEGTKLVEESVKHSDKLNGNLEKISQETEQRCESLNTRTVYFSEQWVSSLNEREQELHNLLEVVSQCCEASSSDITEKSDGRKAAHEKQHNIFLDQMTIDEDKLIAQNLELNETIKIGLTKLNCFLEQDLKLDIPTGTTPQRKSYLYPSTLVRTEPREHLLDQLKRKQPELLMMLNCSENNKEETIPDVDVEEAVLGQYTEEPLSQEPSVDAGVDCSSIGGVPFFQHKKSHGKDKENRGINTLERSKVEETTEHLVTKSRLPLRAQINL
Description: Kinesin inhibition assays were performed using Kinesin ELIPA (Enzyme Linked Inorganic Phosphate Assay). Reactions were conducted in 96-well plates according to the manufacturer’s recommendations (Kinesin ELIPA Biochem Kit – BK060).
Reactions were measured in spectrophotometer set in kinetic mode and an absorbance wavelength of 360 nm.

MDA-MB-231 cells = experiment: Apoptosis and necrosis assay (Annexin-V/PI flow cytometry), MDA-MB-231; type: cell-based, human; settings: 72 h; 4m 1.0 mM, 4bt 0.8 mM, 4p 0.4 mM, 4bc 1.0 mM, 4x 0.8 mM
Description: (§1) For proliferation assays, cells were treated with IC50 concentrations of each compound. Adherent and floating cells were harvested at the same tube and pelleted by centrifugation at 300 g for 5 minutes and stained. Data acquisition of these two fractions put together was performed on a FACSCalibur flow cytometer using CellQuest software and analysed using the FloJo Software. Untreated control cells and DHPMs-treated for 72 h cell samples were stained with Annexin-V-FITC or Annexin-V-Alexa Fluor® 680 and propidium iodide according to the manufacturer’s instructions.

MCF-7 cells [3] = experiment: Cell cycle analysis (PI), MCF-7; type: cell-based, human; settings: 4m 1 mM, 4bt 0.8 mM, 4p 0.4 mM, 4bc 1.0 mM, 4x 0.8 mM
Description: For proliferation assays, cells were treated with IC50 concentrations of each compound. Adherent and floating cells were harvested at the same tube and pelleted by centrifugation at 300 g for 5 minutes and stained. Data acquisition of these two fractions put together was performed on a FACSCalibur flow cytometer using CellQuest software and analysed using the FloJo Software. Control and DHPM-treated cells were harvested at 24, 48 and 72 h, resuspended in ice-cold PBS and fixed with 70% ethanol on ice. Cells were then washed with PBS, harvested and incubated with propidium iodide solution (0.1% Triton X-100, 10 μg/mL propidium iodide, 100 μg/mL DNase free RNase) for 10 min at 37°C. For analysis of cell populations in each cell cycle phase, the sub-G1 picks were excluded and the plots were generated by cell cycle platform data analysis by the FlowJo Software.

MCF-7 cells [4] = experiment: Apoptosis and necrosis assay (Annexin-V/PI flow cytometry), MCF-7; type: cell-based, human; settings: 72 h; 4m 1.0 mM, 4bt 0.8 mM, 4p 0.4 mM, 4bc 1.0 mM, 4x 0.8 mM
Description: as §1

Compound | IC50 (MCF-7 cells [1]) | Effect on cell viability, MCF-7 (MCF-7 cells [1]) | CD44-/CD24- subpopulation, MCF-7 (mean ± SEM) (MCF-7 cells [2]) | CD44+/CD24+ subpopulation, MCF-7 (mean ± SEM) (MCF-7 cells [2]) | CD44-/CD24+ subpopulation, MCF-7 (mean ± SEM) (MCF-7 cells [2]) | CD44+/CD24- subpopulation, MCF-7 (mean ± SEM) (MCF-7 cells [2]) | Inhibition of kinesin Eg5 activity in vitro (in words) (Kinesin Eg5) | Cell death by apoptosis, % of MDA-MB-231 cell population (MDA-MB-231 cells) | Cell cycle effect, MCF-7, 48 h (MCF-7 cells [3]) | Cell death by apoptosis, % of MCF-7 cell population (MCF-7 cells [4])
CC(=O)C1=C(C)NC(=O)NC1c1ccccc1[N+](=O)[O-] (centres unmarked) [Compound 4x] | 276 µM | significant decrease in cell viability | 2.45 ± 0.52% | 35.11 ± 19.33% | 61.35 ± 20.83% | 1.065 ± 0.97% | not statistically significant | less pronounced manner | cell cycle arrest at G2/M | less pronounced manner
CCOC(=O)C1=C(C)NC(=S)NC1c1ccccc1O (centres unmarked) [Compound 4p] | 87.5 µM | significant decrease in cell viability | 2.83 ± 0.59% | 30.40 ± 9.78% | 66.42 ± 10.57% | 0.33 ± 0.20% | not statistically significant | less pronounced manner | cell cycle arrest at G2/M | less pronounced manner
